Series [1] deals with Douglas-fir zygotic embryos. Nature of the series: Initiation frequency of embryogenic cultures from Douglas-fir zygotic embryos. The class given is cell-based. The conditions noted are these: 1.0 ppm in media #121 (Media 1323); 8-9 weeks, dark; control 16.4. On the procedure: Four Douglas-fir cone collections with zygotic embryos at stages 2-4 were chosen. Cones were supplied by The Timber Co. from Cottage Grove, Oregon. Seeds were removed from their cones, soaked in running water for 10 min., and agitated in 10% liquinox containing 1.1 ml/l Tween 20 for an additional 10 min. The seeds were then rinsed with running tap water for 30 min. Seeds were transferred into a laminar flow hood where they were sterilized by agitating in 20% H2O2 for 10 min. Seeds were rinsed in sterilized water for 5 cycles of 5 to 10 min. each. The sterile seeds were placed into a sterile petri dish and dissected. The dissection was performed by splitting the ovule, gently removing the dominant embryo while leaving the suspensor intact, and placing both the embryo and the connected female gametophyte on the test medium. Test medium #1323 is the same as control media #121 but contains 1.0 ppm paclobutrazol. 2 ml of the appropriate medium was poured into multi-well plates sufficient for 10 replications per cone collection. The plates were incubated in the dark for 8-9 weeks at 24-26° C. […] Four Douglas-fir cone collections with zygotic embryos at stages 2-4 were chosen. […] The initiation frequency for the four cone collections with the addition of salts, paclobutrazol, and brassinolide enclosed in a nylon bag was determined to be 38.6%. […]

Series [2] can be described thus: Media pH during Loblolly pine embryogenic culture growth. The class given is physicochemical. On the procedure:
The pH of media containing four different concentrations of MES was compared to that of a non-buffered control media during eight weeks of embryogenic culture growth. Maintenance cultures were established on treatment media using single isolated somatic embryos. Maintenance cultures were prepared and cultured essentially as described in Example 5.
The control media was #1043. (See Table 21). The treatment media consisted of #1043 supplemented with 250, 500, 1000 and 1500 mg/l MES. Media pH was adjusted to 5.7 within all treatments prior to autoclaving, pouring and solidification. Immediately after pouring the media, and thereafter at two week intervals, media pH was measured up to the eighth week of culture growth. At each sampling time, four cultures from each media-genotype treatment were destructively sampled to measure the pH of the media directly underlying the growing embryogenic tissue.

The subject of series [3] is Norway Spruce embryo and female gametophyte. Nature of the series: Initiation frequency of embryogenic cultures from Norway Spruce seed embryos. The class given is cell-based. The settings on record: base media #56; MES 0.25 gm/l (Media 1362); vitamins 0.05 ppm biotin + 0.5 ppm folic acid (Media 1363); nine weeks, light; control 38.5. The procedure:
Mature Norway Spruce seeds were soaked in running water for 1 hour at room temperature and then stored in water for 24 hours in a refrigerator at 4° C. The seeds were sterilized by agitation in 10% liquinox containing 1.1 ml/l Tween 20 for 10 minutes followed by a 30 minute rinse with running tap water. In a sterile laminar flow hood, the rinsed seeds were agitated in 20% H2O2 for 10 min., then again rinsed with sterile deionized water for 5 cycles of 5 to 10 min. each. The sterile Norway Spruce seeds were placed into petri dishes onto sterile moistened filter paper for dissection. Seeds were opened and the female gametophyte removed. The female gametophyte was placed on its side and further opened. The embryo was removed from the gametophyte and placed onto a test medium next to the female gametophyte. Petri dishes containing the embryo and gametophyte were covered and wrapped with Parafilm® and incubated in light at 23-24° C. for nine weeks. The control-medium used for Norway Spruce was media #56. Refer to Table 21 for a detailed listing of media components. The three test media contained combinations of buffering reagent MES and/or vitamins. […] Initiation frequency was determined to be 38.5% for the control media, while the frequency on the control medium with the addition of 0.33 ppm paclobutrazol averaged roughly 48.5%. […]

In the case of `CC(C)(C)[C@@H](O)[C@@H](Cc1ccc(Cl)cc1)n1cncn1` (racemic) [paclobutrazol], the “Initiation Frequency (%)” value in series [1] is recorded as 24.4%.

For `O=S(=O)(O)CCN1CCOCC1` [MES, 2-(N-morpholino)-ethanesulfonic acid], the “Media pH” value in series [2] (250 mg/l in media #1043, 0 weeks) worked out at 5.55; in series [2] (250 mg/l in media #1043, 2 weeks), 5.43; in series [2] (250 mg/l in media #1043, 4 weeks) it was 4.69; in series [2] (250 mg/l in media #1043, 6 weeks), 4.68; in series [2] (250 mg/l in media #1043, 8 weeks), 4.72; in series [2] (500 mg/l in media #1043, 0 weeks), 5.63. Further, the “Media pH” value stood at 5.50 in series [2] (500 mg/l in media #1043, 2 weeks); 4.78 in series [2] (500 mg/l in media #1043, 4 weeks); 4.77 in series [2] (500 mg/l in media #1043, 6 weeks); 4.54 in series [2] (500 mg/l in media #1043, 8 weeks); 5.67 in series [2] (1000 mg/l in media #1043, 0 weeks); 5.57 in series [2] (1000 mg/l in media #1043, 2 weeks). Moreover, the “Media pH” value in series [2] (1000 mg/l in media #1043, 4 weeks) came to 5.38; in series [2] (1000 mg/l in media #1043, 6 weeks) it was 4.70; in series [2] (1000 mg/l in media #1043, 8 weeks) it was 4.89; in series [2] (1500 mg/l in media #1043, 0 weeks), 5.67; in series [2] (1500 mg/l in media #1043, 2 weeks), 5.59; in series [2] (1500 mg/l in media #1043, 4 weeks), 5.59. For the same compound, the “Media pH” value in series [2] (1500 mg/l in media #1043, 6 weeks) turned out to be 4.91; in series [2] (1500 mg/l in media #1043, 8 weeks), 5.18. Moreover, the “Initiation Frequency (%)” value in series [3] is listed as 40.2%.

Source of the values: patent US20060051868A1, “Methods for increasing conifer somatic embryo initiation, capture, and multiplication” (priority 2001, published 2006).
